Measured values taken from patent publication US20190373936A1, “COMPOSITION, METHOD FOR PRODUCING THE SAME AND USE THEREOF” (INFINITUS (CHINA) COMPANY LTD., priority 2018, published 2019).

Legend:
[1] = system: SD rats of combined hyperlipidemia model; experiment: Function of facilitating lowering blood lipid: serum lipid indexes by ELISA in combined hyperlipidemia SD rat model; assay type: in vivo
From the text: (§1) In the present disclosure, reference was made to the method for testing the function of facilitating lowering blood-lipid in the Technical specification for health care food inspection and evaluation (2012 Updated Edition). SPF grade male SD rats were used as experimental animals. After the adaption period, an animal model of the combined hyperlipidemia was established, and the rats were randomly divided into groups according to TC level. Three dosage groups were continuously administered with the composition provided by the present disclosure by gavage at a dosage of 500 mg/kg·BW (equaled to 5 times of recommendation amount for human), 1000 mg/kg·BW (equaled to 10 times of recommendation amount for human) and 2500 mg/kg·BW (equaled to 25 times of recommendation amount for human), respectively. The blank control group and the model control group were administered with the same volume of distilled water by gavage. Each group was weighed regularly. 30 days after the administration, blood samples were collected without fasting, and levels of TC, TG, HDL-C, LDL-C, ox-HDL, ox-LDL, apo-A1 and apo-β were tested.
Name: SPF grade male SD rats, body weight 170˜220 g
High-fat diet: maintenance diet with 20.0% sucrose, 15% lard, 1.2% cholesterol, 0.2% sodium cholate, appropriate amounts of casein, calcium hydrogen phosphate, rock powders and so on. Except for crude fat, water content, crude protein, crude fat, crude fiber, ash, calcium, phosphate and calcium:phosphate ratio reached the national standard for maintenance diet.
Surgical instruments, centrifuges, centrifuge tubes, electronic balances, punchers, gavage needles, enzyme-labeled instruments, heparin sodium, anesthetic, formalin, refrigerators, vortex mixer, weighing scale, serum total cholesterol (TC) ELISA kit, serum triglyceride (TG) ELISA kit, serum high-density lipoprotein cholesterol (HDL-C) ELISA kit, serum low-density lipoprotein cholesterol (LDL-C) ELISA kit, serum oxidized high-density lipoprotein cholesterol (ox-HDL-C) ELISA kit, serum oxidized low-density lipoprotein cholesterol (ox-LDL-C) ELISA kit, serum apolipoprotein A1 (apo-A1) ELISA kit, and serum apolipoprotein (apo-β) ELISA kit.
There were three dosage groups, two positive control groups, one blank control group and one model control group. In low-dosage group, the test sample was administered at a dosage of 5 times of the recommendation amount for human (500 mg/kg), and in middle-dosage and high-dosage groups, the dosages equaled to 10 times (1000 mg/kg) and 25 times (2500 mg/kg) of the recommendation amount for human. The dosage of the positive control group equaled to 5 times (omega: 150 mg/kg; and atorvastatin calcium: 0.83 mg/kg) of the recommendation amount for human. The blank control group and the model control group were administered with equal amount of distilled water at the same volume by gavage. The duration of the administration of the test sample was generally 30 days.
The compositions provided by the examples 1˜3, the powder formulations provided by the examples 4˜6 were accurately weighed, and an appropriate amount of distilled water was added to prepare the low-, middle- and high-dosages samples. The samples were prepared right before use.
(1) Adaptive period: In a barrier system, the rats were fed on maintenance diet and observed for 5˜7 days.
The rats were randomly divided into 22 groups, 6 per group. One group was fed on the maintenance diet as the blank control group. The other 21 groups were fed on high-fat diet as the model control group. The rats were weighed once a week.
20 days after the model control group was fed on high-fat diet, rats in the blank control group and the model control groups were subjected to blood collection (1˜1.5 mL of blood was collected from the tail vein) without fasting. After blood collection, the serum was quickly separated to a new centrifugal tube, stored at −20° C. before test. […]

[2] = Body weight of SD rats fed high-fat diet during administration of test sample; assay type: in vivo; conditions: positive control groups (omega 150 mg/kg; atorvastatin calcium 0.83 mg/kg), 30 days
From the text: as §1, with “The blank control group and the model control group were administered with the same volume of distilled water by gavage. Each group was weighed regularly. 30 days after the administration, blood samples were collected without fasting, and levels of TC, TG, HDL-C, LDL-C, ox-HDL, ox-LDL, apo-A1 and apo-β were tested.” left out
After grouping, each dosage group was orally administered with the test sample every day, the two positive groups were respectively orally administered with positive control samples (diluted Omega solution and diluted atorvastatin calcium solution), and the blank control group and the model control group were administered with the same volume of distilled water. […] After blood collection, the serum was quickly separated, and levels of TC, TG, HDL-C, LDL-C, ox-HDL-C, ox-LDL-C, apo-A1 and apo-β in serum were measured.

[3] = positive control groups (omega 150 mg/kg; atorvastatin calcium 0.83 mg/kg), 30 days

SMILES: CC(C)c1c(C(=O)Nc2ccccc2)c(-c2ccccc2)c(-c2ccc(F)cc2)n1CC[C@@H](O)C[C@@H](O)CC(=O)[O-].CC(C)c1c(C(=O)Nc2ccccc2)c(-c2ccccc2)c(-c2ccc(F)cc2)n1CC[C@@H](O)C[C@@H](O)CC(=O)[O-].[Ca+2] [Atorvastatin Calcium, atorvastatin calcium]
- Effect on Apo-β content in serum of SD rats ([1]; compared with the model control group): decreased
- Apo-A1 levels in serum (Mean Value ± Standard Deviation) [1, 3]: 2693.75 ± 435.48 µg/mL
- Apo-β levels in serum (Mean Value ± Standard Deviation) [1, 3]: 735.00 ± 264.71 µg/mL
- HDL-C levels in serum (Mean Value ± Standard Deviation) [1, 3]: 919.74 ± 150.63 µmol/L
- LDL-C levels in serum (Mean Value ± Standard Deviation) [1, 3]: 853.24 ± 235.19 µmol/L
- Ox-HDL-C levels in serum (Mean Value ± Standard Deviation) [1, 3]: 35.88 ± 7.30 µg/L
- Ox-LDL-C levels in serum (Mean Value ± Standard Deviation) [1, 3]: 45.44 ± 7.40 µg/L
- TC levels in serum (Mean Value ± Standard Deviation) [1, 3]: 1117.14 ± 171.07 µmol/L
- TG levels in serum (Mean Value ± Standard Deviation) [1, 3]: 189.71 ± 45.83 µmol/L
- Final Weight (Mean Value ± Standard Deviation) [2]: 442.00 ± 40.77
